Values of other authors, collected in patent US20060280786A1, “PHARMACEUTICAL FORMULATIONS FOR MINIMIZING DRUG-DRUG INTERACTIONS” (priority 2005, published 2006).

Conditions: 200 mg dose of itraconazole

Question: With CCC(C)n1ncn(-c2ccc(N3CCN(c4ccc(OCC5COC(Cn6cncn6)(c6ccc(Cl)cc6Cl)O5)cc4)CC3)cc2)c1=O (stereo not shown) [itraconazole] as the compound, how does the “fu (fraction of inhibitor drug unbound in plasma)” value read?
Answer: The value was 0.035.
